Experiments:
[1] = Stability (decomposition) in a still lemon beverage, hexane extraction and GC; type: physicochemical; settings: for half life t½: 100 ppm, over 5 days, first order kinetic assumed
Description: The stability of compound 1 of Example 1 was tested in a still lemon beverage prepared by 1+5 dilution of lemon/lime-lemon beverage concentrate (210 g) with water ([…]). Formula of the lemon/lime-lemon beverage concentrate used: [table] Three 100 ml solutions containing each 100 ppm of the compound 1 were prepared and the decomposition of 1 was determined over a period of 5 days by extraction of 5 ml test solutions samples with hexane, spiked with 100 ppm of ethyl myristate. The extracts were analyzed by GC (Hewlett Packard 6890; column: DB-5, 30 m, 0.32 mm i.d.) and for each data point a mean value based on three measurements was calculated.

[2] = aqueous solutions and acidic aqueous alcoholic and non-alcoholic beverages; cited from earlier work

Row | half life t½ [1] | SMILES | hydrolysis [2] | also measured
1 | 264 h | CCCOC(=O)[C@@H]1OC(C=C(C)CCC=C(C)C)O[C@H]1C(=O)OCCC (mixture of isomers) [compound 5, (E/Z)-(4R,5R)-2-(2,6-Dimethyl-hepta-1,5-dienyl)-[1,3]dioxolane-4,5-dicarboxylic acid dipropylester] |  | 
2 |  | CCOC(=O)[C@@H]1OC(C=C(C)CCC=C(C)C)O[C@H]1C(=O)OCC (mixture of isomers) [compound 3, (E/Z)-(4R,5R)-2-(2,6-Dimethyl-hepta-1,5-dienyl)-[1,3]dioxolane-4,5-dicarboxylic acid diethylester] |  | half life ([1]; determined as in Example 6): 21 h
3 | 96 h | CC(C)=CCCC(C)=CC1O[C@@H](C(=O)OC(C)C)[C@H](C(=O)OC(C)C)O1 (mixture of isomers) [compound 1, (E/Z)-(4R,5R)-2-(2,6-Dimethyl-hepta-1,5-dienyl)-[1,3]dioxolane-4,5-dicarboxylic acid diisopropylester] |  | 
4 |  | COC(C=C(C)CCC=C(C)C)OC [citral dimethyl acetal] | rapidly hydrolized | 
5 |  | CC(C)=CCC/C(C)=C/C1OCC(C)O1 (centres unmarked) [citral propylene glycol acetal] | rapidly hydrolized | 

From patent publication US6387431B1, “Dicarboalkoxy dioxolanes as flavoring agent releasing compounds” (Givaudan SA, priority 2000, dated 2002)
